Assay [1] has as its target T1, PTPN2 (Homo sapiens, UniProt P17706).
T1 construct: expressed in transfected cells; host or cells: 293T (293T.109 HiBiT-PTPN2 line; parental 293T WT from ATCC)
T1 sequence (P17706 1-415): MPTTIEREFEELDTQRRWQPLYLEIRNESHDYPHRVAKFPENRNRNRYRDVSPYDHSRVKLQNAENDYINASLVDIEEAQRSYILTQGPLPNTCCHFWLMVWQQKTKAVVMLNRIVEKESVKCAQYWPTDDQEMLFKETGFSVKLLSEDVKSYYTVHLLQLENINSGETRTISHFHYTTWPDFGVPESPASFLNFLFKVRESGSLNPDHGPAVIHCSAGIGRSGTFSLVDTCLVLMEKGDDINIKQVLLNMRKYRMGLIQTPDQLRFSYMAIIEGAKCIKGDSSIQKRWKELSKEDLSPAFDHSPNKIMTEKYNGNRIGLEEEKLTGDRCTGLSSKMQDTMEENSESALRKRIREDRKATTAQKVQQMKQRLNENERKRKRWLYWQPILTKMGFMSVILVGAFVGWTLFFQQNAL
As to the kind of experiment: HiBiT-Degradation 293T.109 PTPN2 (Nano-Glo HiBiT Lytic Assay). Conditions: 293T.109 (HiBiT-PTPN2) cells, 24.0 hours. Format: cell-based. The text has this:
Dulbecco's modified Eagle medium (DMEM) without phenol red and fetal bovine serum (FBS) were purchased from Gibco (Grand Island, NY, USA). Nano-Glo® HiBIT Lytic Assay System was purchased from Promega (Madison, WI, USA). 293T.109 (HiBiT-PTPN2) cell line was generated by ectopically expressing PTPN2 with N-terminal HiBiT fusion tag in 293T WT cell line purchased from ATCC (Manassas, VA, USA). Cell culture flasks and 384-well microplates were acquired from VWR (Radnor, PA, USA).
PTPN2 degradation was determined based on quantification of luminescent signal using Nano-Glo® HiBIT Lytic Assay kit. Test compounds were added to the 384-well plate from a top concentration of 10 μM with 11 points, half log titration in duplicates. 293T.109 cells were added into 384-well plates at a cell density of 5000 cells per well. The plates were kept at 37° C. with 5% CO2 for 24 hours. The cells treated in the absence of the test compound were the negative control and the cells without Nano-Glo® HiBiT Lytic reagent were the positive control. After 24-hour incubation, Nano-Glo® HiBIT Lytic Assay reagents were added to the cells. Luminescence was acquired on EnVision™ Multilabel Reader (PerkinElmer, Santa Clara, CA, USA).
(In general: The HiBiT peptide binds its large partner to form an active luciferase.)

For assay [2], the system named is PTPN2. The assay is described as follows: HiBiT-Degradation B16F10.4 PTPN2. Format: cell-based. The settings on record: B16F10.4 cells, 24.0 hours.

A value given as a limit tells only on which side of the number the result lay.

In general, DC50 refers to the concentration giving 50% degradation. Read a high DC50 as a less potent degrader. In the case of `Cn1c(=O)n(C2CCC(=O)NC2=O)c2ccc(NC3CCN(CCNc4ccc5c(F)c(N6CC(=O)NS6(=O)=O)c(O)cc5c4)CC3)cc21` (centres unmarked) [Example 53], the half-maximal degradation concentration (DC50) in assay [1] is 0.2 to 1 µM; in assay [2], at least 1 µM. The matching figures for `Cn1c(=O)n(C2CCC(=O)NC2=O)c2cccc(C3CCN(CCOCCC(=O)NCCOc4ccc5cc(O)c(N6CC(=O)NS6(=O)=O)c(F)c5c4)CC3)c21` (centres unmarked) [Example 39]: at least 1 µM and at least 1 µM. Consider `Cn1nc(C2CCC(=O)NC2=O)c2ccc(C3CCN(CCn4cc(-c5ccc6c(F)c(N7CC(=O)NS7(=O)=O)c(O)cc6c5)cn4)CC3)cc21` (centres unmarked) [Example 152, 3-[6-[1-[2-[4-[5-fluoro-7-hydroxy-6-(1,1,4-trioxo-1,2,5-thiadiazolidin-2-yl)-2-naphthyl]pyrazol-1-yl]ethyl]-4-piperidyl]-1-methyl-indazol-3-yl]piperidine-2,6-dione], for which the DC50 in assay [1] lay within 0.01 to 0.05 µM; in assay [2], 0.2 to 1 µM.

For the compound `Cn1c(=O)n(C2CCC(=O)NC2=O)c2ccc(NC3CN(CC(=O)Nc4ccc5c(F)c(N6CC(=O)NS6(=O)=O)c(O)cc5c4)C3)cc21` (centres unmarked) [Example 27, 2-[3-[[1-(2,6-dioxo-3-piperidyl)-3-methyl-2-oxo-benzimidazol-5-yl]amino]azetidin-1-yl]-N-[5-fluoro-7-hydroxy-6-(1,1,4-trioxo-1,2,5-thiadiazolidin-2-yl)-2-naphthyl]acetamide], the DC50 was in the range of 0.01 to 0.05 µM in assay [1] and 0.2 to 1 µM in assay [2]. On to `O=C1CCC(N2C(=O)c3cccc(NCc4cnn(CCC(=O)Nc5ccc6c(F)c(N7CC(=O)NS7(=O)=O)c(O)cc6c5)c4)c3C2=O)C(=O)N1` (centres unmarked) [Example 12, 3-[4-[[[2-(2,6-dioxo-3-piperidyl)-1,3-dioxo-isoindolin-4-yl]amino]methyl]pyrazol-1-yl]-N-[5-fluoro-7-hydroxy-6-(1,1,4-trioxo-1,2,5-thiadiazolidin-2-yl)-2-naphthyl]propanamide], for which the values for the DC50 in assay [1] and in assay [2] were 0.2 to 1 µM and at least 1 µM, respectively. The matching figures for `Cn1c(=O)n(C2CCC(=O)NC2=O)c2ccc(C3CCN(C(=O)C(=O)Nc4ccc5c(F)c(N6CC(=O)NS6(=O)=O)c(O)cc5c4)CC3)cc21` (centres unmarked) [Example 87, 2-[4-[1-(2,6-dioxo-3-piperidyl)-3-methyl-2-oxo-benzimidazol-5-yl]-1-piperidyl]-N-[5-fluoro-7-hydroxy-6-(1,1,4-trioxo-1,2,5-thiadiazolidin-2-yl)-2-naphthyl]-2-oxo-acetamide]: 0.01 to 0.05 µM and 0.01 to 0.05 µM.

Turning to `CC(C)(Nc1cccc2c1C(=O)N(C1CCC(=O)NC1=O)C2=O)c1cn(CCC(=O)Nc2ccc3c(F)c(N4CC(=O)NS4(=O)=O)c(O)cc3c2)nn1` (centres unmarked) [Example 18, N-(6-(1,1-dioxido-4-oxo-1,2,5-thiadiazolidin-2-yl)-5-fluoro-7-hydroxynaphthalen-2-yl)-3-(4-(2-((2-(2,6-dioxopiperidin-3-yl)-1,3-dioxoisoindolin-4-yl)amino)propan-2-yl)-1H-1,2,3-triazol-1-yl)propanamide], the DC50 in assay [1] was 0.2 to 1 µM; in assay [2], at least 1 µM. In turn, `O=C(CCOCCn1cc(CNc2cccc3c2C(=O)N(C2CCC(=O)NC2=O)C3=O)nn1)NCCOc1ccc2cc(O)c(N3CC(=O)NS3(=O)=O)cc2c1` (centres unmarked) [Example 50] had a half-maximal degradation concentration (DC50) in assay [1] of at least 1 µM.

On to `O=C(CCCCCn1cc(CNc2cccc3c2C(=O)N(C2CCC(=O)NC2=O)C3=O)nn1)NCCOc1ccc2cc(O)c(N3CC(=O)NS3(=O)=O)c(Cl)c2c1` (centres unmarked) [Example 49], for which the DC50 in assay [1] is at least 1 µM.

`O=C(CCCCCn1cc(CNc2cccc3c2C(=O)N(C2CCC(=O)NC2=O)C3=O)nn1)NCCOc1ccc2cc(O)c(N3CC(=O)NS3(=O)=O)cc2c1` (centres unmarked) [Example 51] gave a half-maximal degradation concentration (DC50) in assay [1] of at least 1 µM.

For the origin of these results see patent US20240383886A1, “Protein Tyrosine Phosphatase Degraders and Methods of Use Thereof” (CALICO LIFE SCIENCES LLC, priority 2019, published 2024).
